# According to patent US20220412975A1, “CHARACTERIZING MODULATORS OF ADAMTS-7 AND ADAMTS-12” (The Broad Institute, Inc., priority 2019, published 2022):
# What was measured:
# ADAMTS-7 = biological target: T1, ADAMTS-7 (Homo sapiens, UniProt Q9UKP4, A119V/A123T/A127T/A171V/A193G/A200T/A28V/A36P/A42G/A66V/A78S/A97T/D77A/DEL186-188/DEL228-233/E133D/E190K/E213K/E83Q/G114S/G115N/G117S/G196D/G27H/H100Y/H124S/H234Q/K153R/L143F/L192S/L20I/P189H/P201S/P29L/P33S/P79S/Q99P/R118N/R122Q/R174Q/R195Q/R215Q/R218H/R35L/R75A/R76Q/R87Q/R92L/S170E/S199R/S202G/S214H/T110I/T125V/V182M/V208G/V74A/W225K/Y209S); assay: ADAMTS-7 enzymatic activity FRET assay, testing of inhibitory compounds; format: biochemical
# T1 construct: rat ADAMTS-7 signal peptide + prodomain (rat 1-217), fusion partner (N); 2xStrep tag (C); 6xHis tag (C); made in house; host or cells: Expi293 cells
# Experimental: Purified recombinant ADAMTS-7 (as of SEQ ID NO: 1 or SEQ ID NO: 2) was diluted in reaction buffer (20 mM HEPES pH 8.0, 150 mM NaCl, 5 mM CaCl2, 0.004% Brij, 10 μM ZnCl2) for a concentration of approximately 20 nM. 25 μl of the solution were transferred into each well of a 384-well white microtiter plate (Greiner Bio-One 781075) and 1 μl test compound solution (modulator/inhibitor dissolved in DMSO, at the corresponding concentration) or pure DMSO as a control were added per well. […] Amino acids […] are derived from Thrombospondin-1 sequence (275-289). An additional carboxyl glutamic acid was added after the QXL520 quencher to increase substrate solubility. The microtiter plate was incubated for 120 min at the temperature of 32° C. The increase of fluorescence intensity was measured in appropriate fluorescence plate reader (e.g. TECAN Ultra) using excitation wavelength of 485 nm and emission wavelength of 520 nm. IC50 values were calculated from percentage of inhibition of ADAMTS-7 activity as a function of test compound concentration. IC50 values derived using functional ADAMTS-7 according to SEQ ID NO: 1 or SEQ ID NO: 2, respectively, were not distinguishable, both laying within the experimental error.
# (§1) The assays to determine the IC50 for ADAMTS inhibition were performed as described earlier herein.
# ADAMTS-4 = biological target: T2, ADAMTS-4 (Homo sapiens, UniProt O75173); assay: Selectivity FRET assay ADAMTS4; format: biochemical; conditions: ADAMTS4 50 nM, Dabcyl-[…]-Glu(Edans)-NH2 1 μM, 120 min, 32° C.
# T2 construct: purchased R&D 4307-AD
# T2 sequence (O75173 213-837): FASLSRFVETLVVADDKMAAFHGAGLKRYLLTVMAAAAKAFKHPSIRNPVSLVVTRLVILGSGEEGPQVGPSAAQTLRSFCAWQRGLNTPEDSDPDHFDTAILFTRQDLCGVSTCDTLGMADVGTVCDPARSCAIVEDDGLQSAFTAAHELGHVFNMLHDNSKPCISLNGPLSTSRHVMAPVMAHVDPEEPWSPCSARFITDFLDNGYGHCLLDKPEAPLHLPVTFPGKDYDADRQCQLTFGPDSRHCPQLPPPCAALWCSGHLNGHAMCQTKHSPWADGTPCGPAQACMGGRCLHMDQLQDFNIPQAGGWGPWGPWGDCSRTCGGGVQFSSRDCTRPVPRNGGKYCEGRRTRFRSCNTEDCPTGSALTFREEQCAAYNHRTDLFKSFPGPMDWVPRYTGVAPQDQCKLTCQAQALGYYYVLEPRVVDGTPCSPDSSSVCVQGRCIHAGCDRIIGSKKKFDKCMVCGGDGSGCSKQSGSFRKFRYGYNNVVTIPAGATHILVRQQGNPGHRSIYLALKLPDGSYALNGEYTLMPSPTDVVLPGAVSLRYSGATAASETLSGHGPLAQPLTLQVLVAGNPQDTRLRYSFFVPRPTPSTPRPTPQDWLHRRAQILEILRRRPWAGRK
# Experimental: The respective enzyme (see Table 4 below) was diluted in reaction buffer (50 mM Tris, 2.5 μM ZnCl2, 0.05% BSA, 0.001% Brij, pH 7.5 for ADAM17; 50 mM Tris 7.5, 150 mM NaCl, 10 mM CaCl2, 0.05% Brij for all other enzymes) to the respective concentration and 25 μl were transferred into each well of a 384-well white microtiter plate (Greiner Bio One 781075). 1 μl test compound solution (dissolved in DMSO, at the corresponding concentration) or pure DMSO as a control was added per well. The enzymatic reaction was initiated by addition of 25 μl of the respective concentration of the respective FRET substrate (see Table 4 below) in reaction buffer. The microtiter plate was incubated for 120 min at the temperature of 32° C. The increase of fluorescence intensity was measured in appropriate fluorescence plate reader (e.g. TECAN Ultra) using the respective wavelengths for excitation and emission. IC50 values were calculated from percentage of inhibition of enzyme activity as a function of test compound concentration.
# Table 4. Assay conditions for the evaluation of the selectivity of ADAMTS-7 modulators. Abbreviations: Dabcyl: 4-((4-(dimethylamino)phenyl)azo)benzoic acid; Glu(Edans): L-glutamic acid-γ-[2-(1-sulfonyl-5-naphthyl)-aminoethylamide]; Mca: (7-Methoxycoumarin-4-yl)acetyl; Dap(Dnp): (2S)-3-(2,4-dinitroanilino)-2-(9H-fluoren-9-ylmethoxycarbonylamino)propanoic acid; Dpa: N-3-(2, 4-Dinitrophenyl)-L-2,3-diaminopropionyl.
# as §1
# T1 sequence (Q9UKP4 with tags, fused parts or gaps with the stated changes): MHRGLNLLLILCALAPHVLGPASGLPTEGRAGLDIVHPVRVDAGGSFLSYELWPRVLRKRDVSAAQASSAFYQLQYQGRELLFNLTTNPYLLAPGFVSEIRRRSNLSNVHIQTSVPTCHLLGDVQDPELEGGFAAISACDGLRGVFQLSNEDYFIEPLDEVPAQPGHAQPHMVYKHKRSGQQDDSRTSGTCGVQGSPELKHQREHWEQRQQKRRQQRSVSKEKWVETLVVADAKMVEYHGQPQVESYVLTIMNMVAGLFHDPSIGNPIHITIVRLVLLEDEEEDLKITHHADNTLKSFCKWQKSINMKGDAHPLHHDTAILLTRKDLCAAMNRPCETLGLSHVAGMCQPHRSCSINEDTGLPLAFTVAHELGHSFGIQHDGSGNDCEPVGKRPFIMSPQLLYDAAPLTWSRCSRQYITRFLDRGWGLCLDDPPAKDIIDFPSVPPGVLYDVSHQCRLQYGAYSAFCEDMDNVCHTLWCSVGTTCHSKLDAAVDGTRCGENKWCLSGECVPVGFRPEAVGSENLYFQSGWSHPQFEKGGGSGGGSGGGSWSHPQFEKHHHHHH
SMILES,IC50 (ADAMTS-7),IC50 (ADAMTS-4)
"O=C1NC(=O)[C@](CNC(=O)c2cnn(-c3ccc(F)cn3)n2)(C2CC2)N1 [Example 12.1, N-{[(4R)-4-cyclopropyl-2,5-dioxoimidazolidin-4-yl]methyl}-2-(5-fluoropyridin-2-yl)-2H-1,2,3-triazole-4-carboxamide]",0.14 µM,4.75 µM
"O=C1NC(=O)[C@](CNC(=O)c2cnn(-c3cnccn3)n2)(C2CC2)N1 [Example 12.2, N-{[(4R)-4-cyclopropyl-2,5-dioxoimidazolidin-4-yl]methyl}-2-(pyrazin-2-yl)-2H-1,2,3-triazole-4-carboxamide]",0.355 µM,24 µM
"Cn1cc(-c2cc(C(=O)NC[C@@]3(C4CC4)NC(=O)NC3=O)on2)cn1 [Example 12.5, N-{[(4R)-4-cyclopropyl-2,5-dioxoimidazolidin-4-yl]methyl}-3-(1-methyl-1H-pyrazol-4-yl)-1,2-oxazole-5-carboxamide]",0.052 µM,4.69 µM
